Measured values reported in US8188059B2, “Compounds and methods for modulating expression of GCGR” (Isis Pharmaceuticals, Inc., priority 2006, dated 2012).

How the values were obtained:
Assay type in all cases: in vivo, mouse
GCGR mRNA = GCGR mRNA levels in liver of C57/BL6 mice, single i.p. dose (Example 4, Tables 35-41); details: 48 h, Table 35 comparison ISIS 148364 & ISIS 386626
Protocol: (§1) Eight-week old male C57/BL6 mice (Jackson Laboratory, Bar Harbor, Me.) were administered a single dose of GCGR oligonucleotide by intraperitoneal injection at a concentration of […]. Each dose group consisted of four animals. Shown in Table 31 are the sequences, motifs and conjugates of the GCGR antisense compounds used in this study. Bolded residues indicate 2′-O-methoxyethyl (2′-MOE) moieties. All compounds comprise phosphorothioate internucleoside linkages throughout and each cytosine is replaced with 5-methylcytosine. ISIS 386626, ISIS 386627 and ISIS 386628 further comprise a C16 conjugate group attached to the 2′-O position of the sugar via a diamide linkage (2′-OCH2C(═O)N(H)(CH2)4N(H)C(═O)—(CH2)15CH3). GCGR antisense compounds target published GCGR sequences, including Genbank® Accession No. BC031885.1 (SEQ ID NO: 7).
(§2) Mice were sacrificed 48 hours following injection to determine serum transaminase levels (Table 32); liver, white adipose tissue (WAT), spleen and kidney weight (Table 33); cholesterol, triglyceride and glucose levels (Table 34); GCGR mRNA levels (Tables 35-41); and full-length and total oligonucleotide concentration in liver and kidney (Table 42). Endpoints were assessed using methods described herein and well known to those of ordinary skill in the art. Data is included from a pre-treatment bleed (Pre-Bleed) and post-treatment bleed (Post-Bleed).
To determine whether the phenotypic changes shown above correlated with a decrease in GCGR mRNA, treated animals were evaluated for levels of target mRNA in liver by real time PCR according to methods described herein. Tables 35 to 41 show results from direct comparisons of the antisense compounds targeting GCGR nucleic acid for their effect on target expression. Results are expressed as percent of saline control.

[1] = ALT & AST levels, C57/BL6 mice (Example 4, Table 32); details: for ALT Pre-Bleed / AST Pre-Bleed: pre-treatment bleed; for ALT Post-Bleed / AST Post-Bleed: 48 hours following injection
Protocol: as §1, §2

[2] = Organ weights: liver, white adipose tissue, spleen, kidney (Example 4, Table 33); details: 48 h, C57/BL6 mice
Protocol: as §1, §2

[3] = Triglyceride, cholesterol and glucose levels, pre-bleed and post-bleed (Example 4, Table 34); set-up: TRIG Pre-Bleed / TRIG Post-Bleed / CHOL Pre-Bleed / CHOL Post-Bleed / Glucose Pre-Bleed / Glucose Post-Bleed: unit not given here; details: C57/BL6 mice; for CHOL Pre-Bleed / Glucose Pre-Bleed / TRIG Pre-Bleed: pre-treatment bleed; for CHOL Post-Bleed / Glucose Post-Bleed / TRIG Post-Bleed: post-treatment bleed, 48 h
Protocol: as §1, §2

[4] = Total and full-length antisense compound concentrations in liver and kidney (Example 4, Table 42); details: C57/BL6 mice; single i.p. dose; 48 h; dose not given
Protocol: as §1, §2
Treatment with the 2-10-2 MOE gapmers led to a significant dose-dependent decrease in GCGR mRNA expression. […] To determine whether the observed increase in efficiency with the short antisense compounds is due to an increase in antisense compound accumulation, full-length and total antisense compound concentration in the liver and kidney were determined.

386626 (antisense GCTTCTCCATCATA; chemistry not fully specified) [compound 386626]
GCGR mRNA levels in liver (GCGR mRNA; 6.25 mg/kg single i.p.): 7% of saline control
GCGR mRNA levels in liver (GCGR mRNA; 12.5 mg/kg single i.p.): 3% of saline control
GCGR mRNA levels in liver (GCGR mRNA; 25 mg/kg single i.p.): 8% of saline control
GCGR mRNA levels in liver (GCGR mRNA; 50 mg/kg single i.p.): 0% of saline control
ALT Pre-Bleed ([1]; 6.25 mg/kg dose group): 26 IU/L
AST Pre-Bleed ([1]; 6.25 mg/kg dose group): 46 IU/L
ALT Pre-Bleed ([1]; 12.5 mg/kg dose group): 28 IU/L
AST Pre-Bleed ([1]; 12.5 mg/kg dose group): 44 IU/L
ALT Pre-Bleed ([1]; 25 mg/kg dose group): 30 IU/L
AST Pre-Bleed ([1]; 25 mg/kg dose group): 44 IU/L
ALT Pre-Bleed ([1]; 50 mg/kg dose group): 28 IU/L
AST Pre-Bleed ([1]; 50 mg/kg dose group): 48 IU/L
ALT Post-Bleed ([1]; single i.p. dose 6.25 mg/kg): 42 IU/L
AST Post-Bleed ([1]; single i.p. dose 6.25 mg/kg): 69 IU/L
ALT Post-Bleed ([1]; single i.p. dose 12.5 mg/kg): 34 IU/L
AST Post-Bleed ([1]; single i.p. dose 12.5 mg/kg): 90 IU/L
ALT Post-Bleed ([1]; single i.p. dose 25 mg/kg): 36 IU/L
AST Post-Bleed ([1]; single i.p. dose 25 mg/kg): 92 IU/L
ALT Post-Bleed ([1]; single i.p. dose 50 mg/kg): 40 IU/L
AST Post-Bleed ([1]; single i.p. dose 50 mg/kg): 120 IU/L
Organ weight: Kidney ([2]; 6.25 mg/kg single i.p.): 100 % saline control
Organ weight: Liver ([2]; 6.25 mg/kg single i.p.): 100 % saline control
Organ weight: Spleen ([2]; 6.25 mg/kg single i.p.): 95 % saline control
Organ weight: WAT ([2]; 6.25 mg/kg single i.p.): 90 % saline control
Organ weight: Kidney ([2]; 12.5 mg/kg single i.p.): 97 % saline control
Organ weight: Liver ([2]; 12.5 mg/kg single i.p.): 96 % saline control
Organ weight: Spleen ([2]; 12.5 mg/kg single i.p.): 114 % saline control
Organ weight: WAT ([2]; 12.5 mg/kg single i.p.): 73 % saline control
Organ weight: Kidney ([2]; 25 mg/kg single i.p.): 103 % saline control
Organ weight: Liver ([2]; 25 mg/kg single i.p.): 109 % saline control
Organ weight: Spleen ([2]; 25 mg/kg single i.p.): 120 % saline control
Organ weight: WAT ([2]; 25 mg/kg single i.p.): 97 % saline control
Organ weight: Kidney ([2]; 50 mg/kg single i.p.): 104 % saline control
Organ weight: Liver ([2]; 50 mg/kg single i.p.): 112 % saline control
Organ weight: Spleen ([2]; 50 mg/kg single i.p.): 130 % saline control
Organ weight: WAT ([2]; 50 mg/kg single i.p.): 77 % saline control
CHOL Pre-Bleed ([3]; 6.25 mg/kg group): 85
Glucose Pre-Bleed ([3]; 6.25 mg/kg group): 222
TRIG Pre-Bleed ([3]; 6.25 mg/kg group): 86
CHOL Post-Bleed ([3]; 6.25 mg/kg single i.p.): 90
Glucose Post-Bleed ([3]; 6.25 mg/kg single i.p.): 221
TRIG Post-Bleed ([3]; 6.25 mg/kg single i.p.): 162
CHOL Pre-Bleed ([3]; 12.5 mg/kg group): 82
Glucose Pre-Bleed ([3]; 12.5 mg/kg group): 232
TRIG Pre-Bleed ([3]; 12.5 mg/kg group): 100
CHOL Post-Bleed ([3]; 12.5 mg/kg single i.p.): 76
Glucose Post-Bleed ([3]; 12.5 mg/kg single i.p.): 185
TRIG Post-Bleed ([3]; 12.5 mg/kg single i.p.): 148
CHOL Pre-Bleed ([3]; 25 mg/kg group): 87
Glucose Pre-Bleed ([3]; 25 mg/kg group): 235
TRIG Pre-Bleed ([3]; 25 mg/kg group): 100
CHOL Post-Bleed ([3]; 25 mg/kg single i.p.): 72
Glucose Post-Bleed ([3]; 25 mg/kg single i.p.): 186
TRIG Post-Bleed ([3]; 25 mg/kg single i.p.): 187
CHOL Pre-Bleed ([3]; 50 mg/kg group): 79
Glucose Pre-Bleed ([3]; 50 mg/kg group): 239
TRIG Pre-Bleed ([3]; 50 mg/kg group): 87
CHOL Post-Bleed ([3]; 50 mg/kg single i.p.): 57
Glucose Post-Bleed ([3]; 50 mg/kg single i.p.): 179
TRIG Post-Bleed ([3]; 50 mg/kg single i.p.): 163
Full-length antisense compound concentration, Kidney [4]: 355 µg/g
Full-length antisense compound concentration, Liver [4]: 125 µg/g
Total antisense compound concentration, Kidney [4]: 757 µg/g
Total antisense compound concentration, Liver [4]: 274 µg/g
